Drawing on PubChem BioAssay (NCI), this text covers TGI for eight molecules.

Some test systems named below: NCI/ADR-RES ovarian; MOLT-4 leukemia; MCF7 breast; PC-3 prostate; K-562 leukemia; IGROV1 ovarian; OVCAR-3 ovarian; HCT-15 colon; SK-MEL-28 melanoma; RXF 393 renal; SR leukemia; OVCAR-4 ovarian; TK-10 renal; MALME-3M melanoma; HCT-116 colon; MDA-MB-435; NCI-H226 lung; UACC-62 melanoma; SK-MEL-2 melanoma.
What all share (assay): inhibition of tumour cell growth, NCI panel, 48 h

SMILES strings stand for the structures.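 Results reflect a 48-hour exposure of cells in 96-well plates to compound at five concentrations. TGI: concentration producing complete growth inhibition.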

As for `O=C(NCCCCCCNC(=O)c1cc(-c2ccccc2)nc2ccccc12)c1cc(-c2ccccc2)nc2ccccc12`, the TGI in the assay with NCI/ADR-RES ovarian, in the assay on MOLT-4 leukemia, in the assay with MCF7 breast, in the assay with PC-3 prostate, in the assay on K-562 leukemia and in the assay with IGROV1 ovarian was greater than 100 µM in each case. In addition, the TGI in the assay on OVCAR-3 ovarian, with HCT-15 colon, in the assay with SK-MEL-28 melanoma, with RXF 393 renal, with SR leukemia and in the assay with OVCAR-4 ovarian was greater than 100 µM in each case. Besides, the TGI in the assay on TK-10 renal, in the assay with MALME-3M melanoma, in the assay with HCT-116 colon, with MDA-MB-435, in the assay on NCI-H226 lung and with UACC-62 melanoma was greater than 100 µM throughout.

Turning to `CC(C)(C)OC(=O)N1C(c2cccnc2)=CC[C@H]2C3CC=C(c4cccnc4)[C@@]3(C)CC[C@@H]21` (some centres not stated), the TGI is 34.9 µM with NCI/ADR-RES ovarian; greater than 100 µM with MOLT-4 leukemia; 11.1 µM in the assay with MCF7 breast; 19.3 µM in the assay on PC-3 prostate; 38.6 µM in the assay on K-562 leukemia; 16.4 µM with IGROV1 ovarian. Also, the TGI with OVCAR-3 ovarian stood at 14.2 µM; in the assay with HCT-15 colon, 13.8 µM; in the assay with SK-MEL-2 melanoma, 8.39 µM; with RXF 393 renal it was 14.6 µM; in the assay with SR leukemia, 22.2 µM; with OVCAR-4 ovarian it was 19.3 µM. In addition, the TGI in the assay on TK-10 renal amounted to 19.7 µM; in the assay with MALME-3M melanoma, 13.3 µM; with HCT-116 colon, 17.5 µM; in the assay with MDA-MB-435, 5.7 µM; in the assay on NCI-H226 lung, 15.1 µM; with UACC-62 melanoma, 8.31 µM.

`CC(=O)OCC1OC(n2c(-c3ccc(C)cc3)cc(-c3ccccc3)c(C#N)c2=S)C(OC(C)=O)C(OC(C)=O)C1OC(C)=O` (configuration not stated): the TGI with NCI/ADR-RES ovarian, in the assay on MOLT-4 leukemia, in the assay on MCF7 breast, in the assay on PC-3 prostate, in the assay with K-562 leukemia and in the assay with IGROV1 ovarian was greater than 100 µM in each case. Moreover, the TGI in the assay with OVCAR-3 ovarian, in the assay with HCT-15 colon, in the assay on SK-MEL-28 melanoma, in the assay on RXF 393 renal, in the assay with SR leukemia and with OVCAR-4 ovarian was greater than 100 µM each time. Further, the TGI in the assay on TK-10 renal, in the assay on MALME-3M melanoma, with HCT-116 colon, in the assay on MDA-MB-435, with NCI-H226 lung and in the assay on UACC-62 melanoma was greater than 100 µM throughout.

Consider `CCOC(=O)c1ccc(NCC#CCN2CCCCC2)cc1`, for which the TGI with NCI/ADR-RES ovarian, in the assay with MOLT-4 leukemia, with MCF7 breast, with PC-3 prostate, with K-562 leukemia and in the assay with IGROV1 ovarian was greater than 100 µM throughout. Also, the TGI in the assay with OVCAR-3 ovarian, in the assay on HCT-15 colon, in the assay with SK-MEL-28 melanoma, with SK-MEL-2 melanoma, with RXF 393 renal and in the assay on SR leukemia was greater than 100 µM in each case. In addition, the TGI with OVCAR-4 ovarian, in the assay on MALME-3M melanoma, with HCT-116 colon, with MDA-MB-435, in the assay with NCI-H226 lung and in the assay on UACC-62 melanoma was greater than 100 µM in each case.

Take `Oc1ccc2c(c1)-c1c(c3ccccc3n1CCN1CCOCC1)CC2`: the TGI with NCI/ADR-RES ovarian was 95.3 µM; with MOLT-4 leukemia it was greater than 100 µM; with MCF7 breast, greater than 100 µM; in the assay with PC-3 prostate, greater than 100 µM; in the assay on K-562 leukemia, greater than 100 µM; in the assay with IGROV1 ovarian it was greater than 100 µM. Besides, the TGI is greater than 100 µM in the assay on OVCAR-3 ovarian; greater than 100 µM with HCT-15 colon; 69.4 µM in the assay with SK-MEL-2 melanoma; greater than 100 µM in the assay with RXF 393 renal; greater than 100 µM with SR leukemia; 94.4 µM in the assay with TK-10 renal. Besides, the TGI in the assay on MALME-3M melanoma was greater than 100 µM; in the assay with HCT-116 colon, greater than 100 µM; in the assay on MDA-MB-435 it was greater than 100 µM; in the assay on NCI-H226 lung, 81.2 µM; with UACC-62 melanoma it was 81 µM.

For `Cc1ccccc1S(=O)(=O)Nn1cnc2ccc(S(=O)(=O)Nc3ccc(Cl)cc3)cc2c1=O`, the TGI in the assay on NCI/ADR-RES ovarian, in the assay with MOLT-4 leukemia, in the assay on MCF7 breast, in the assay with PC-3 prostate, in the assay with K-562 leukemia and in the assay with IGROV1 ovarian was greater than 100 µM throughout. Also, the TGI in the assay on OVCAR-3 ovarian, in the assay with HCT-15 colon, in the assay with SK-MEL-28 melanoma, in the assay with SK-MEL-2 melanoma, with SR leukemia and in the assay on OVCAR-4 ovarian was greater than 100 µM each time. Moreover, the TGI with TK-10 renal, in the assay with MALME-3M melanoma, in the assay on HCT-116 colon, with MDA-MB-435, in the assay with NCI-H226 lung and with UACC-62 melanoma was greater than 100 µM in each case.

`CC(=O)Nc1ccc(C2SCc3nc4ccccc4n32)cc1` (configuration not stated): the TGI with NCI/ADR-RES ovarian, with MOLT-4 leukemia, in the assay on MCF7 breast, in the assay on PC-3 prostate, in the assay with K-562 leukemia and in the assay with IGROV1 ovarian was greater than 100 µM each time. The TGI with OVCAR-3 ovarian, in the assay with HCT-15 colon, in the assay on SK-MEL-28 melanoma, with SK-MEL-2 melanoma, in the assay on RXF 393 renal and in the assay on SR leukemia was greater than 100 µM throughout. Moreover, the TGI was greater than 100 µM with OVCAR-4 ovarian; greater than 100 µM with TK-10 renal; greater than 86.8 µM in the assay on MALME-3M melanoma; greater than 100 µM in the assay with HCT-116 colon; greater than 100 µM in the assay with MDA-MB-435; greater than 100 µM with UACC-62 melanoma.

With `O=C(Nc1nc(C23CC4CC(CC(C4)C2)C3)cs1)c1cc2ccccc2oc1=O`, the TGI in the assay on NCI/ADR-RES ovarian, in the assay on MOLT-4 leukemia, with MCF7 breast, in the assay with PC-3 prostate, in the assay on K-562 leukemia and in the assay on IGROV1 ovarian was greater than 100 µM in each case. The TGI in the assay on OVCAR-3 ovarian, with HCT-15 colon, in the assay on SK-MEL-28 melanoma, with RXF 393 renal, with SR leukemia and in the assay on OVCAR-4 ovarian was greater than 100 µM in each case. Moreover, the TGI in the assay on TK-10 renal, in the assay on MALME-3M melanoma, with HCT-116 colon, with MDA-MB-435 and in the assay with NCI-H226 lung was greater than 100 µM throughout.
